Laboratory results from PubChem BioAssay (NCI).
Values joined by “and” are separate entries in the source; they are usually repeats but may differ in a detail not shown here. Equal entries are not always repeated.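 Values below derive from 48-hour exposures of cells grown in 96-well plates, with endpoints linearly interpolated between the two concentrations bracketing the appropriate inhibition level. GI50 = concentration required for 50% inhibition of growth. TGI denotes the concentration required for complete inhibition of growth.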

Key:
Assay in all cases: DTP human tumour cell line panel, 48 h
UACC-257 melanoma = tested on: UACC-257 melanoma
HCC-2998 colon = tested on: HCC-2998 colon
A498 renal = tested on: A498 renal
KM12 colon = tested on: KM12 colon
NCI-H23 lung = tested on: NCI-H23 lung
SF-268 CNS = tested on: SF-268 CNS
SK-MEL-28 melanoma = tested on: SK-MEL-28 melanoma
NCI-H226 lung = tested on: NCI-H226 lung
BT-549 breast = tested on: BT-549 breast
MDA-MB-435 = tested on: MDA-MB-435

Row | Structure (SMILES) | TGI (UACC-257 melanoma) | TGI (HCC-2998 colon) | TGI (A498 renal) | TGI (KM12 colon) | TGI (NCI-H23 lung) [µM] | TGI (SF-268 CNS) [µM] | TGI (SK-MEL-28 melanoma) | TGI (NCI-H226 lung) [µM] | GI50 (UACC-257 melanoma) [nM] | GI50 (BT-549 breast) [nM] | TGI (BT-549 breast) [µM] | GI50 (MDA-MB-435) [nM] | TGI (MDA-MB-435) | GI50 (HCC-2998 colon) [nM] | GI50 (NCI-H23 lung) [nM] | GI50 (SF-268 CNS) [nM] | GI50 (SK-MEL-28 melanoma) [nM] | GI50 (NCI-H226 lung) [nM] | GI50 (A498 renal) [nM] | GI50 (KM12 colon)
1 | C=CCOCCCC(=O)C(=[N+]=[N-])C(=O)OC | > 100 µM | > 100 µM | > 100 µM | > 100 µM | > 100 | > 100 | > 100 µM | > 100 | – | – | – | – | – | – | – | – | – | – | – | –
2 | O=C1CC(N2C(=O)/C(=C/C(Cl)=C\c3ccc([N+](=O)[O-])cc3)SC2=S)C(=O)N1c1ccc(Cl)cc1 (configuration not stated) | 66.5 µM | 3.03 µM | – | – | 4.31 | > 100 | 4.02 µM | 4.65 | 2920 | 1750 | 3.74 | 1650 | 3.39 µM | 1590 | 1640 | 3070 | 1710 | 1920 | – | –
3 | COC1(OC)C[C@H](C)[C@@]23O[C@]24c2cc(O)c5c(c2N[C@H]3C#C/C=C\C#C[C@]14O)C(=O)c1ccccc1C5=O | 0.0789 µM and 0.0505 µM | 0.0855 µM and 0.0544 µM | 0.00964 µM and 0.0459 µM | 0.0847 µM and 0.108 µM | 0.0229 | – | 0.234 µM and 0.087 µM | 0.00755 | 6.24 | – | 0.125 | 18.4 | 0.139 µM and 0.175 µM | 19.7 | – | 1.93 | 27.3 | – | 5 | 13.8 nM and 24.9 nM
4 | O=c1c2c([nH]c3nccn13)CCCC2 | – | > 10 µM | > 10 µM | > 10 µM | > 10 | > 10 | > 10 µM | > 10 | – | – | – | – | > 10 µM | – | – | – | – | – | – | –
5 | Cc1cc(C)n(C(=O)C(C)Sc2nnc(SC(C)C(=O)n3nc(C)cc3C)s2)n1 (configuration not stated) | > 100 µM | > 100 µM | > 100 µM | > 100 µM | > 100 | > 100 | > 100 µM | > 100 | – | – | > 100 | – | > 100 µM | – | – | – | – | – | – | –
6 | C=C1C(C2(C)C=CC(=O)OC3(C)COC(=O)CC32)C(OC=O)C(OC(=O)C(O)C(C)CC)C2(C)C(c3ccoc3)CC(OC(C)=O)C12O (configuration not stated) | > 100 µM | > 100 µM | > 100 µM | > 100 µM | > 100 | > 100 | > 100 µM | > 100 | – | – | > 100 | – | > 100 µM | – | – | – | – | – | – | –
7 | COc1ccc(/C=c2/[nH]c(=O)/c(=C\c3ccc(OCc4ccccc4)cn3)[nH]c2=O)cc1 | > 100 µM | > 100 µM | > 100 µM | > 100 µM | > 100 | > 100 | > 100 µM | > 100 | – | – | > 100 | – | > 100 µM | – | – | – | – | – | – | –
8 | CN(C)CCNc1c([N+](=O)[O-])cc2c3c(cccc13)C(=O)N(CCN(C)C)C2=O | 4.71 µM | 2.72 µM | 4.34 µM | > 26.4 µM | 3.89 | 4.6 | 12.9 µM | > 100 | – | – | – | – | – | – | – | – | – | – | – | –
9 | S=C(NCCCCCCNC(=S)Nc1c2ccccc2nc2ccccc12)Nc1c2ccccc2nc2ccccc12 | > 100 µM | > 100 µM | > 100 µM | > 34.7 µM | > 100 | > 100 | > 100 µM | > 30.1 | – | – | – | – | – | – | – | – | – | – | – | –
10 | Cc1c2c(cc3c1[nH]c1ccccc13)C(c1ccc(F)cc1)=NCC2 | 2.46 µM | 2.8 µM | 4.73 µM | 7.37 µM | 7.56 | 19.6 | 4.74 µM | 4.64 | – | – | – | – | – | – | – | – | – | – | – | –
11 | O=C1CS(=O)(=O)C(c2cccc(Oc3ccccc3)c2)N1c1cccc(Cl)c1Cl (configuration not stated) | 51.2 µM | – | – | > 100 µM | – | 55.2 | > 100 µM | > 100 | – | – | – | – | 48.8 µM | – | – | – | – | – | – | –
12 | OC(c1ccc(-c2ccccc2)cc1)(c1ccc(-c2ccccc2)cc1)c1ccc(-c2ccccc2)cc1 | > 100 µM | – | – | > 100 µM | > 100 | > 100 | > 100 µM | – | – | – | > 100 | – | > 100 µM | – | – | – | – | – | – | –
13 | CCn1cc(C(=O)O)c(=O)c2cc(F)c(N3CCN(Cn4c(O)c(N=NC(=O)c5ccncc5)c5cc(Cl)ccc54)CC3)cc21 | > 100 µM | > 100 µM | > 100 µM | > 100 µM | > 100 | > 100 | > 100 µM | > 100 | – | – | > 100 | – | > 100 µM | – | – | – | – | – | – | –
14 | N#CCc1[nH]nc2nc(SCc3ccccc3)nc(N3CCCCC3)c12 | 35.7 µM | 31.9 µM | 73.4 µM | 33 µM | 33.1 | 36.7 | 45.8 µM | – | – | – | 34.1 | – | 35 µM | – | – | – | – | – | – | –
15 | O=C1OC(c2ccccc2)=N/C1=C/c1cccs1 | > 100 µM | > 100 µM | – | > 100 µM | – | > 100 | > 100 µM | > 100 | – | – | – | – | > 100 µM | – | – | – | – | – | – | –
16 | COc1nc(C#CCCCC#N)nc(OC)n1 | 45.2 µM | – | 37.6 µM | 36.3 µM | 31.4 | 94.4 | 34.8 µM | – | – | – | 33.1 | – | 27.7 µM | – | – | – | – | – | – | –
17 | OC1C=C2C3CN(Cc4cc5c(cc43)OCO5)[C@H]2C[C@@H]1O (some centres not stated) | 9.29 µM | – | 39.9 µM | 43.9 µM | 67.4 | > 100 | > 100 µM | > 100 | – | – | 14.7 | – | 24.7 µM | – | – | – | – | – | – | –
18 | O=C(NN1C(=O)/C(=C/c2ccc(Cl)cc2)N=C1c1ccccc1)c1c(Cl)c(Cl)c(Cl)c(Cl)c1-c1nc2ccccc2[nH]1 | – | 31.8 µM | 44.5 µM | 28.5 µM | 34.9 | 62.5 | > 100 µM | 68.2 | – | – | 32.8 | – | 11.6 µM | – | – | – | – | – | – | –
